From US12241902B2, “Probes for detection of copper” (The Regents of the University of California, priority 2019, dated 2025)
Where “and” joins values, the source holds several entries; their conditions need not be identical. Equal entries are not always repeated.

Assays:
[1] = system: labile Cu(I) pools in HEK 293T cells; assay: Ratiometric confocal fluorescence imaging of labile Cu(I) in HEK 293T cells; type: cell-based, Human
Experimental: (A) Confocal fluorescence microscopy images of HEK 293T cells pretreated with solvent vehicle control or varying concentrations of CuCl2 in complete medium for 18 h. The cells were then washed with PBS, incubated with FCP-1 (5 μM) in DPBS for 45 min and then imaged. (B) Average cellular ratiometric emission ratios, represented by Fgreen/Forange, as determined from imaging experiments in (A) performed in triplicate. (C) Confocal fluorescence microscopy images of HEK 293T cells pretreated with solvent vehicle control or BCS (100 μM) in complete medium for 18 h. The cells were then washed with PBS, incubated with FCP-1 (5 μM) in DPBS for 45 min and then imaged. (D) Average cellular ratiometric emission ratios of FCP-1, Fgreen/Forange, as determined from experiments in (C) performed in triplicate. […] (E) ICP-MS measurement to determine total cellular ^63Cu levels in HEK293T cells under copper supplementation and depletion relative to the control (with normalization of different cell numbers by total cellular ^31P level). Error bars denote standard derivation (SD; n=3). *p<0.05, **p<0.01, ***p<0.001, ****p<0.0001 and *****p<0.00001.
Cell culture. Following cell cultures were grown: Human embryonic kidney (HEK 293T) cells were maintained in Dulbecco's Modified Eagle Medium (DMEM) supplemented with 10 vol % fetal bovine serum (FBS), 1 vol % GlutaMax (Gibco) and 1 vol % non-essential amino acids (NEAA, Gibco). Ctrl1^+/+ and Ctr1^−/− MEF cells were maintained in DMEM with 10 vol % FBS, 1 vol % non-essential amino acids, 1 vol % sodium pyruvate and 0.1 vol % 2-mercaptoethanol or DMEM supplemented with 10 vol % FBS and 1× Penicillin-Streptomycin. Human cervical epithelial carcinoma (HeLa) was maintained in DMEM medium supplemented with 1 vol % GlutaMAX and 10 vol % FBS. […]
Confocal fluorescence microscopy imaging. For confocal fluorescence imaging experiments of HEK293T, MEF Ctr1^+/+ and Ctr1^−/− and HeLa cells, the cells were plated on 8-well Lab Tek borosilicate chambered coverglass slides (Nunc), and allowed to grow to ca. 60% confluency before performing the cell imaging experiments. […] For quantification, a threshold value was set as background and the average intensity of the whole image was measured by ImageJ. […]
Given the metal and oxidation state-selective and sensitive response of FCP-1 to Cu(I), this probe was examined for ratiometric fluorescence imaging of labile Cu(I) pools in living cells. […] The observed increases and decreases in labile Cu(I) levels upon copper supplementation (CuCl2) and copper depletion (BCS) treatments, respectively, as measured by FCP-1 imaging were supported by complementary ICP-MS measurements of total copper levels showing expected increases and decreases in the total copper pool (FIG. 9, panel C).

[2] = UV-vis absorption and emission measurements in aqueous buffer; type: physicochemical; details: for molar extinction coefficient: PBS, glutathione 2 mM, PEG-400 40% v/v
Experimental: UV-vis absorption and emission measurements. FCP-1 stock solution in DMSO (5 mM) was prepared, aliquoted and stored at […]. For each spectroscopic measurement, a fresh aliquot was diluted to 500 μM by DMSO and further diluted with PBS containing 2 mM GSH/PEG-400 mixture (3:2, v/v) to prepare the sensing solution with 5 μM of FCP-1. The sensing solution was pre-incubated in a water bath at 37° C., and then [Cu(CH3CN)](PF6) in MeCN or other metal ions in H2O was added. The solution mixture was kept at 37° C. and taken out for UV-vis absorption or emission spectroscopic measurements in quartz cuvette at predetermined time intervals. Emission spectra were corrected using coumarin 153 as secondary emission standard (4). Photoluminescence quantum yield (PLQY) was determined using fluorescein in 0.1 M NaOH solution (0.95; λex=496 nm). FRET efficiency from the fluorescein moiety to rhodamine moiety of FCP-1 was estimated by [1−(PLQY of FCP-1/PLQY of FL-TPA)].
FCP-1 in PBS buffer containing glutathione (2 mM) and PEG-400 (40%, v/v) was evaluated. […] The first two absorption maxima corresponded to the absorption of the fluorescein moiety, as similar absorption maxima at 460 and 489 nm were found in the absorption spectra of FL-TPA (FIG. 4), whereas the lowest energy absorption at 552 nm originated from the rhodamine moiety (FIG. 4). […] Together with the significant contribution of the lower-energy fluorescence from the excitation at 450-500 nm, which is in the region of FL-TPA absorption (FIG. 6), the data support the occurrence of FRET from the fluorescein donor to the rhodamine acceptor. Using FL-TPA as a reference FRET donor compound (FIG. 7) with assumption that quenching of donor fluorescence originated only from the FRET process, the FRET efficiency in the FCP-1 cassette is estimated to be 84%.

FRET efficiency ([2]; FL-TPA as reference FRET donor, 1−(PLQY of FCP-1/PLQY of FL-TPA)): 84% | absorption maxima ([2]; PBS buffer containing glutathione (2 mM) and PEG-400 (40%, v/v)): 465 nm and 493 nm and 552 nm | molar extinction coefficient ([2]; at 465 nm): 20,000 M^−1 cm^−1 | molar extinction coefficient ([2]; at 493 nm): 22,100 M^−1 cm^−1 | molar extinction coefficient ([2]; at 552 nm): 40,000 M^−1 cm^−1 | emission wavelength ([2]; photoexcitation at 458 nm): 526 nm and 576 nm
SMILES: CC[N+](CC)=c1ccc2c(-c3ccccc3C(=O)O)c3ccc(N4CCN(Cc5cccc(CN(Cc6ccccn6)Cc6cccc(COc7ccc8c(-c9ccccc9C(=O)OC)c9ccc(=O)cc-9oc8c7)n6)n5)CC4)cc3oc-2c1 [FCP-1]
Fgreen/Forange ratio in copper-deficient cells compared to control ([1]; BCS 100 μM pretreatment, FCP-1 5 μM): statistically significant decrease | Fgreen/Forange ratio in copper-supplemented cells over vehicle control ([1]; CuCl2 25-300 μM pretreatment, FCP-1 5 μM 45 min): statistically significant, dose-dependent increase | cell viability by nuclear staining ([1]; FCP-1 5 μM, DRAQ-5 (FIGS. 10-11)): remained viable
